The NIST ThermoML archive (doi:10.1021/je060406c)
Where “and” joins values, the source holds several entries; their conditions need not be identical. Identical values can stand only once. Numbers after ± are expanded uncertainties.

Conditions: Liquid, Transpiration method

O=Cc1ccccc1 [benzaldehyde]
Conditions	vapor or sublimation pressure [kPa]
278.4 K	0.04083 ± 0.0023
282.3 K	0.05524 ± 0.0031
286.3 K	0.07697 ± 0.0042
290.3 K	0.09697 ± 0.0054
294.3 K	0.1372 ± 0.0076
298.4 K	0.1775 ± 0.0098
303.2 K	0.246 ± 0.013
308.2 K	0.3195 ± 0.017
313.2 K	0.4306 ± 0.023

O=Cc1ccco1 [2-furaldehyde]
Conditions	vapor or sublimation pressure [kPa]
276.7 K	0.0525 ± 0.003
281.5 K	0.0746 ± 0.0041
285.4 K	0.1011 ± 0.0056
288.4 K	0.1293 ± 0.0072
290.6 K	0.1516 ± 0.0084
293.2 K	0.182 ± 0.01
295.5 K	0.2088 ± 0.012
298.2 K	0.2589 ± 0.014
300.5 K	0.3002 ± 0.017
303.1 K	0.3652 ± 0.02
308.2 K	0.4911 ± 0.027
312.2 K	0.6213 ± 0.034
315.1 K	0.7411 ± 0.041
317.9 K	0.9108 ± 0.05
320.1 K	1.04 ± 0.057
323.4 K	1.256 ± 0.068

OCCc1ccccc1 [2-phenylethanol]
Conditions	vapor or sublimation pressure
287.8 K	0.00251 ± 0.00014 kPa
289.7 K	0.00285 ± 0.00016 kPa
292.7 K	0.00399 ± 0.00023 kPa
295.1 K	0.00482 ± 0.00027 kPa
297.5 K	0.00626 ± 0.00036 kPa
302.5 K	0.00976 ± 0.00055 kPa
308.2 K	0.0153 ± 0.00086 kPa
312.5 K	0.02276 ± 0.0013 kPa
316.6 K	0.03091 ± 0.0017 kPa
317.6 K	0.03285 ± 0.0018 kPa
322.7 K	0.05022 ± 0.0028 kPa and 0.05028 ± 0.0028 kPa
322.8 K	0.05055 ± 0.0028 kPa
327.8 K	0.06913 ± 0.0038 kPa
332.8 K	0.09839 ± 0.0054 kPa
337.9 K	0.1395 ± 0.0078 kPa
342.9 K	0.2097 ± 0.012 kPa
348.1 K	0.2794 ± 0.015 kPa
353.2 K	0.3777 ± 0.021 kPa
358.3 K	0.5243 ± 0.029 kPa
363.3 K	0.6922 ± 0.038 kPa

O=CCc1ccccc1 [α-tolualdehyde]
Conditions	vapor or sublimation pressure [kPa]
293.2 K	0.01683 ± 0.00095
298.1 K	0.02456 ± 0.0014
303.1 K	0.03724 ± 0.0021
308.2 K	0.05436 ± 0.003
313.7 K	0.0801 ± 0.0044
317.9 K	0.111 ± 0.0061
323 K	0.15 ± 0.0083
328.1 K	0.2162 ± 0.012
332.1 K	0.2883 ± 0.016
338 K	0.4029 ± 0.022
343 K	0.5498 ± 0.03
